From US4450115A, “Amino-alcohol derivatives” (Kyowa Hakko Kogyo Co., Ltd., priority 1979, dated 1984)
Like-named read-outs stand apart in the source and are kept apart here.

What was measured:
in vivo = settings: mouse, male dd-strain mice
From the text: The test compounds were orally administered to male dd-strain mice weighing 20-25 g.

[1] = tested on: main artery of the dogs' organ; assay: Effect on organ blood flow; format: in vivo, mongrel dogs; settings: Canis lupus familiaris, iv, Table 5, 0.1 mg administration, femoral vein;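 further: percent change relative to blood flow before compound administration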
[2] = tested on: main artery of the dogs' organ; assay: Effect on organ blood flow; format: in vivo, mongrel dogs; settings: Canis lupus familiaris, iv, Table 7, femoral vein;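 further: percent change relative to blood flow before compound administration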
Protocol: (§1) In experiments (a), (b), (c) and (d), 3-4 male or female mongrel dogs (weight: 10-20 Kg) as one group were anesthetized by intravenous administration of 30 mg/kg of pentobarbital-Na. All compounds were dissolved in polyethylene glycol 400 and administered to the femoral vein.
(b) Effect on organ blood flow M (%)
In this test, 1 mg/kg of each compound shown in Tables 5 and 7 is administered to the dogs and an electromagnetic probe is attached to the main artery of the dogs' organ to measure the flow of blood.

Effect on heart rate = format: in vivo, mongrel dogs; settings: Table 7; dogs, 1 mg/kg, femoral vein
Protocol: as §1
(d) Effect on heart rate (beats/min.)

α-adrenergic receptor = assay: α blocking activity (inhibition of Norepinephrine-induced increase in systolic blood pressure); format: in vivo, mongrel dogs; settings: Table 6; dogs, test compound 0.1 mg/kg; 3 μg/kg Norepinephrine i.v.
Protocol: as §1
(c-1) α blocking activity
In this test, 3 μg/kg of Norepinephrine is intravenously administered to the dogs to cause an increase in systolic blood pressure.

β2-adrenergic receptor = assay: β2 blocking activity (inhibition of Isoproterenol-induced decrease in diastolic blood pressure); format: in vivo, mongrel dogs; settings: Table 6; dogs, test compound 0.1 mg/kg; 0.5 μg/kg Isoproterenol i.v.
Protocol: as §1
(c-3) β2 blocking activity
In this test, 0.5 μg/kg of Isoproterenol is intravenously administered to the dogs to cause a decrease in diastolic blood pressure.

β1-adrenergic receptor = assay: β1 blocking activity (inhibition of Isoproterenol-induced increase in heart rate); format: in vivo, mongrel dogs; settings: Table 6; dogs, test compound 0.1 mg/kg; 0.5 μg/kg Isoproterenol i.v.
Protocol: as §1
(c-2) β1 blocking activity
In this test, 0.5 μg/kg of Isoproterenol is intravenously administered to the dogs to cause an increase in the heart rate.

[3] = read-out: Organ blood flow, Crotch (percentage change)
[4] = read-out: Organ blood flow, Malleus (percentage change)

SMILES	change in vivo at 1 mg/kg [2, 3] [%]	change in vivo at 1 mg/kg [2, 4] [%]	LD50 (in vivo; Table 7, oral) [mg/kg]	Heart rate (decrease) (Effect on heart rate) [beats/min.]	also measured
CCCC(=O)Nc1ccc(OCC(O)CNCC2COc3ccccc3O2)c(C(C)=O)c1 (stereo not shown) [Compound 4, 1-(4-butyrylamido-2-acetyl)phenoxy-3-(1,4-benzodioxane-2-methaneamino)-2-propanol]	–	–	–	–	LD50 (in vivo; Table 5, oral): > 1000 mg/kg; change in vivo at 0.1 mg [1, 3]: -18%; change in vivo at 0.1 mg [1, 4]: -46%
CCOC(=O)Cc1ccc(OCC(O)CNCCN(Cc2ccccc2)C(C)COc2ccccc2)cc1 (stereo not drawn) [Compound 26, 1-(4-ethoxycarbonylmethylphenoxy)-3-{β-[N-benzyl-N-(1-methyl-2-phenoxyethyl)]aminoethyl}amino-2-propanol]	-12	67	> 1000	-20	–
CC(=O)Nc1ccc(OCC(O)CNCCN(Cc2ccccc2)C(C)COc2ccccc2)cc1 (stereo not drawn) [Compound 27, 1-(4-acetamidophenoxy)-3-{β-[N-benzyl-N-(1-methyl-2-phenoxyethyl)]aminoethyl} amino-2-propanol]	3	100	> 1000	-13	–
CCCC(=O)Nc1ccc(OCC(O)CNCCN(Cc2ccccc2)C(C)COc2ccccc2)c(C(C)=O)c1 (stereo not drawn) [Compound 28, 1-(4-butyrylamido-2-acetylphenoxy)-3-{β-[N-benzyl-N-(1-methyl-2-phenoxyethyl)]aminoethyl} amino-2-propanol]	4	61	1000 to 2000	-8	–
Cc1cccc(OCC(O)CNCCN(Cc2ccccc2)C(C)COc2ccccc2)c1 (stereo not drawn) [Compound 29, 1-(3-methylphenoxy)-3-{β-[N-benzyl-N-(1-methyl-2-phenoxyethyl)]aminoethyl} amino-2-propanol]	-45	100	–	-4	–
CC(COc1ccccc1)N(CCNCC(O)COc1ccc(CC(N)=O)cc1)Cc1ccccc1 (stereo not drawn) [Compound 30, 1-(4-carbamoylmethylphenoxy)-3-{β-[N-benzyl-N-(1-methyl-2-phenoxyethyl)]aminoethyl} amino-2-propanol]	-19	10	–	-5	–
COc1ccc(OCC(C)NCC(O)COc2ccc(CC(N)=O)cc2)cc1 (stereo not shown) [Compound 34, 1-(4-carbamoylmethylphenoxy)-3-{1-methyl-2-(4-methoxyphenoxy)ethylamino}-2-propanol]	–	–	–	–	α blocking activity, percentage inhibition (α-adrenergic receptor): -36%; LD50 (in vivo; Table 6, oral): > 1000 mg/kg; β2 blocking activity, percentage inhibition (β2-adrenergic receptor): -57%; β1 blocking activity, percentage inhibition (β1-adrenergic receptor): -55%
